Assay results published in the NIST ThermoML archive (doi:10.1016/j.jct.2006.09.012).
Several values for one entry are separate records, joined by “and”; a condition that tells them apart may be missing. Equal values may be shown once.

Details: Gas, Buoyancy - hydrostatic balance with magnetic suspension - two sinkers

N#N [nitrogen]
Details	mass density
250 K, 4032 kPa	55.8107 kg/m3 [middle of 5 runs]
250 K, 7922 kPa	111.201 kg/m3
250 K, 7922.1 kPa	111.201 kg/m3
250 K, 11944 kPa	167.531 kg/m3 and 167.53 kg/m3
250 K, 15945 kPa	220.078 kg/m3 and 220.076 kg/m3
250 K, 15946 kPa	220.079 kg/m3
250 K, 19672 kPa	264.436 kg/m3 [middle of 5 runs]
250 K, 23918 kPa	309.033 kg/m3 and 309.035 kg/m3 and 309.038 kg/m3
250 K, 23919 kPa	309.043 kg/m3
250 K, 23920 kPa	309.056 kg/m3
250 K, 23921 kPa	309.062 kg/m3
250 K, 27922 kPa	345.621 kg/m3 [middle of 4 runs]
250 K, 27923 kPa	345.629 kg/m3 and 345.627 kg/m3
250 K, 31914 kPa	377.498 kg/m3 and 377.5 kg/m3
250 K, 31915 kPa	377.505 kg/m3 and 377.504 kg/m3
250 K, 31916 kPa	377.516 kg/m3 and 377.513 kg/m3
273.16 K, 3969.2 kPa	49.6242 kg/m3 [middle of 4 runs]
273.16 K, 3969.3 kPa	49.6242 kg/m3
273.16 K, 6172.5 kPa	77.4431 kg/m3 and 77.4438 kg/m3 and 77.4433 kg/m3
273.16 K, 6172.6 kPa	77.4441 kg/m3 and 77.4442 kg/m3
273.16 K, 8165.1 kPa	102.478 kg/m3 and 102.48 kg/m3
273.16 K, 8165.2 kPa	102.48 kg/m3 and 102.479 kg/m3
273.16 K, 12168 kPa	151.567 kg/m3 [middle of 5 runs]
273.16 K, 16376 kPa	200.13 kg/m3 [middle of 5 runs]
273.16 K, 20308 kPa	241.736 kg/m3 and 241.739 kg/m3
273.16 K, 20309 kPa	241.746 kg/m3 and 241.745 kg/m3 and 241.743 kg/m3
273.16 K, 24524 kPa	281.91 kg/m3
273.16 K, 24525 kPa	281.913 kg/m3 and 281.915 kg/m3
273.16 K, 24526 kPa	281.922 kg/m3 and 281.921 kg/m3
273.16 K, 28792 kPa	318.055 kg/m3
273.16 K, 28793 kPa	318.057 kg/m3 and 318.058 kg/m3
273.16 K, 28794 kPa	318.067 kg/m3 and 318.065 kg/m3
273.16 K, 33963 kPa	356.391 kg/m3
273.16 K, 33964 kPa	356.402 kg/m3 and 356.397 kg/m3
273.16 K, 33965 kPa	356.407 kg/m3
273.16 K, 33966 kPa	356.413 kg/m3
293.14 K, 99.9 kPa	1.1487 kg/m3 [middle of 4 runs]
293.14 K, 199.8 kPa	2.2978 kg/m3 and 2.2977 kg/m3 and 2.2976 kg/m3
293.14 K, 299.7 kPa	3.447 kg/m3 and 3.4472 kg/m3 and 3.4473 kg/m3
293.14 K, 499.5 kPa	5.7475 kg/m3 and 5.7477 kg/m3 and 5.7476 kg/m3
293.14 K, 749.2 kPa	8.6261 kg/m3 and 8.626 kg/m3
293.14 K, 749.3 kPa	8.6261 kg/m3
293.14 K, 999 kPa	11.5072 kg/m3 [middle of 5 runs]
293.14 K, 1498.5 kPa	17.2762 kg/m3 [middle of 6 runs]
293.14 K, 1998 kPa	23.0541 kg/m3 and 23.0539 kg/m3
293.14 K, 2997.1 kPa	34.6233 kg/m3 and 34.6235 kg/m3 and 34.6236 kg/m3
293.14 K, 3996.1 kPa	46.1976 kg/m3 [middle of 5 runs]
293.14 K, 4995.1 kPa	57.7592 kg/m3
293.14 K, 4995.2 kPa	57.7597 kg/m3 and 57.7599 kg/m3
293.14 K, 5994.2 kPa	69.2908 kg/m3 and 69.291 kg/m3 and 69.2909 kg/m3
293.14 K, 5994.3 kPa	69.2914 kg/m3 and 69.2915 kg/m3
293.15 K, 4004.8 kPa	46.2934 kg/m3 [middle of 6 runs]
293.15 K, 4004.9 kPa	46.2937 kg/m3
293.15 K, 5964.9 kPa	68.9512 kg/m3 [middle of 5 runs]
293.15 K, 7948.6 kPa	91.6869 kg/m3 [middle of 4 runs]
293.15 K, 7948.8 kPa	91.689 kg/m3 and 91.6881 kg/m3
293.15 K, 11980 kPa	136.716 kg/m3 [middle of 7 runs]
293.15 K, 15954 kPa	178.78 kg/m3
293.15 K, 15955 kPa	178.782 kg/m3 [middle of 7 runs]
293.15 K, 19567 kPa	214.452 kg/m3 and 214.453 kg/m3
293.15 K, 19568 kPa	214.457 kg/m3
293.15 K, 24175 kPa	256.042 kg/m3
293.15 K, 24176 kPa	256.052 kg/m3 [middle of 4 runs]
293.15 K, 28412 kPa	290.447 kg/m3 [middle of 4 runs]
293.15 K, 28413 kPa	290.455 kg/m3 and 290.453 kg/m3
293.15 K, 32144 kPa	317.902 kg/m3
293.15 K, 32145 kPa	317.909 kg/m3 and 317.905 kg/m3
293.15 K, 32146 kPa	317.912 kg/m3
293.15 K, 32147 kPa	317.922 kg/m3 and 317.917 kg/m3
293.15 K, 32148 kPa	317.926 kg/m3
320 K, 4775.8 kPa	50.1489 kg/m3 and 50.1482 kg/m3 and 50.1481 kg/m3
320 K, 4775.9 kPa	50.1492 kg/m3 and 50.1493 kg/m3 and 50.149 kg/m3
320 K, 10135 kPa	104.999 kg/m3 and 105.001 kg/m3 and 105.002 kg/m3
320 K, 20210 kPa	198.799 kg/m3 [middle of 6 runs]
339.98 K, 499.5 kPa	4.9482 kg/m3 and 4.9481 kg/m3 and 4.948 kg/m3
339.98 K, 999 kPa	9.8915 kg/m3 and 9.8916 kg/m3
339.98 K, 1998 kPa	19.7585 kg/m3 and 19.7583 kg/m3 and 19.7584 kg/m3
339.98 K, 3996 kPa	39.3819 kg/m3 [middle of 4 runs]
339.98 K, 5994.1 kPa	58.7959 kg/m3 and 58.796 kg/m3
339.99 K, 5081.9 kPa	49.9596 kg/m3
339.99 K, 5082 kPa	49.9602 kg/m3 and 49.9596 kg/m3
339.99 K, 5082.1 kPa	49.9616 kg/m3
339.99 K, 21784 kPa	198.014 kg/m3
340 K, 5082 kPa	49.96 kg/m3
340 K, 10840 kPa	104.588 kg/m3 and 104.589 kg/m3
340 K, 21784 kPa	198.008 kg/m3 [middle of 5 runs]
340.01 K, 3874.6 kPa	38.1897 kg/m3 [middle of 6 runs]
340.01 K, 5932.3 kPa	58.1965 kg/m3 and 58.1955 kg/m3
340.01 K, 5932.4 kPa	58.1962 kg/m3
340.01 K, 7789.6 kPa	75.9992 kg/m3
340.01 K, 7789.7 kPa	76.0004 kg/m3 [middle of 5 runs]
